Values of other authors in patent US20130065959A1, “SANITIZING MEAT WITH PERACID AND 2-HYDROXY ORGANIC ACID COMPOSITIONS” (Fresh Express Incorporated, priority 2009, published 2013).

conditions: cited from earlier work

Going from [O][Cl+][O-] [Chlorine Dioxide] to O=[O+][O-] [Ozone], the “Oxidation Capacity” value rises from 1.57 eV to 2.07 eV.

For OCl [Sodium hypochlorite (Chlorine bleach), Sodium hypochlorite], the “Oxidation Capacity” value is given as 1.36 eV.
